Source: patent US20250214986A1, “P2X3 INHIBITOR COMPOUND, SALT THEREOF, POLYMORPH THEREOF AND USE THEREOF” (HUMANWELL HEATHCARE (GROUP) CO., LTD., priority 2022, published 2025)
Converted amounts (≈) assume the structure as drawn. Each block holds one compound with its values, some of them ahead of it.

Key:
[1] = Pharmacokinetic assay in mice; assay type: in vivo, male ICR mice; details: for AUC(0-t) / Cmax / Tmax / half-life: male, ICR, mouse, plasma, mice, oral intragastric administration, 10 mg/kg; for half-life: read-out: T½ (converted)
Procedure: Pharmacokinetic assay in mice was performed, wherein the mice used were male ICR mice weighing 20-25 g and fasted overnight. 3 mice were taken and given the compound by oral intragastric administration at 10 mg/kg, and blood was collected before administration and at 15 min, 30 min, 1 h, 2 h, 4 h, 8 h, and 24 h after administration. The blood samples were centrifuged at 6800 g at 2-8° C. for 6 min, and plasma was collected and stored at −80° C. […] The mixture was vortexed for 1 min and then centrifuged at 13000 rpm at 4° C. for 10 min. The supernatant was taken, and 3 times its amount of water was added for mixing. A proper amount of the resulting mixture was taken for LC-MS/MS analysis. The major pharmacokinetic parameters were analyzed using a non-compartmental model in the WinNonlin 7.0 software.

taste of SD rats = assay: Taste assay in rats (water vs. aqueous quinine intake); assay type: in vivo; details: 30 mg/kg, i.p., 0.3 mM aqueous quinine, 15 min intake half an hour after administration
Procedure: After 3 days of overnight water-deprivation training, SD rats were subjected to administration with the compound. Half an hour after administration, each animal was given one bottle of water and one bottle of 0.3 mM aqueous quinine solution. The water bottles were removed after 15 min, and the intake of water and the intake of 0.3 mM aqueous quinine solution by the rats were measured separately. The effect of the compound on the taste of SD rats was assessed based on the difference between the water intake and the aqueous quinine solution intake (FIG. 41).

[2] = tested on: citric acid/histamine-stimulated cough model; assay: Cough efficacy assay of histamine/citric acid in guinea pigs; assay type: in vivo; details: for Cough inhibition rate vs. vehicle (%) / Mean number of coughs within 15 min: histamine/citric acid nebulization, intranasal instillation
Procedure: (§1) Before enrollment, the animals were acclimatized for 3-7 days. Once their body weight reached the standard (300-400 g), they were numbered and randomly grouped. 0.25-24 h before the start of the cough assessment, the compound or excipient was administered to the guinea pigs via intranasal instillation. The dose range for the administration of the test substance was 0.17-1.5 mg/kg. During the cough assessment, after the animals were acclimated in a whole-body plethysmography box, they were given histamine nebulization, followed by citric acid nebulization. The number of coughs and the cough latency of the animals were recorded within 22 min from the start of the histamine nebulization until the end of the observation period. For the statistics of experimental data, the one-way ANOVA method was used to analyze and compare the data of the groups. Statistical analysis results with p<0.05 were considered to indicate significant differences. Pairwise comparisons were performed using the t-test method to assess differences.

[3] = tested on: citric acid/ATP-stimulated cough model; assay: Cough efficacy assay of ATP/citric acid in guinea pigs; assay type: in vivo; details: for Cough inhibition rate vs. vehicle (%) / Mean number of coughs within 15 min: ATP/citric acid nebulization, intranasal instillation
Procedure: as §1, with “ATP” for “histamine”, “and after a few minutes, they were given” for “followed by”, “15” for “22”, “citric acid nebulization. The” for “histamine nebulization until the end of the observation period. For the statistics of experimental data, the”

[4] = Dynamic solubility experiment at 37° C.; assay type: physicochemical
Procedure: In the test, the purity, dynamic solubility and stability were tested using an Agilent 1260 high-performance liquid chromatograph, the molar ratio of salt-forming ions was tested using ion chromatography, and the analytical conditions are shown in Tables A-4 and A-5 below.
Solids at a feeding concentration of 10 mg/mL (calculated based on free base) were rotationally mixed with corresponding vehicles at 37° C. […] After sampling at each time point, the samples were centrifuged (at 10000 rpm) and filtered (through a 0.45 μm PTFE filter head). The HPLC concentrations and pH values of the filtrates were determined.
100.2 mg of NaCl and 50.3 mg of Triton X-100 were weighed into a 50 mL volumetric flask and then completely dissolved by addition of purified water. 816 μL of 1 M hydrochloric acid was added, and the pH was adjusted to 1.8 with 1 M hydrochloric acid or 1 M NaOH solution. The mixed solution was brought to the volume by addition of purified water.
170.5 mg of anhydrous NaH2PO4, 22.2 mg of NaOH, and 310.9 mg of NaCl were weighed into a 50 mL volumetric flask and then completely dissolved by addition of purified water. The pH was adjusted to 6.5 with 1 M hydrochloric acid or 1 M NaOH solution. The mixed solution was brought to the volume by addition of purified water. Subsequently, 55.1 mg of SIF powder was weighed into a 25 mL volumetric flask and completely dissolved with the above solution, and the mixed solution was brought to the volume.
0.21 mL of glacial acetic acid, 101.6 mg of NaOH, and 295.4 mg of NaCl were added into a 25 mL volumetric flask and then completely dissolved by addition of about 20 mL of purified water. The pH was adjusted to 5.0 with 1 M hydrochloric acid or 1 M NaOH solution. The mixed solution was brought to the volume by addition of purified water, and then 280.8 mg of SIF powder was weighed into the flask and completely dissolved.

[5] = Hygroscopicity by dynamic vapor sorption (DVS); assay type: physicochemical
Procedure: Dynamic vapor sorption (DVS) curves were acquired on a DVS IntrInsic from Surface Measurement Systems (SMS). The relative humidity at 25° C. was corrected with the deliquescence points of LiCl, Mg(NO3)2, and KCl.
Starting at 0% RH, the test acquired the percentage changes in mass of the samples when the humidity changed (0% RH to 95% RH to 0% RH) at a constant temperature of 25° C.

[6] = Solid state stability (XRPD and HPLC); assay type: physicochemical
Procedure: In the test, the purity, dynamic solubility and stability were tested using an Agilent 1260 high-performance liquid chromatograph, the molar ratio of salt-forming ions was tested using ion chromatography, and the analytical conditions are shown in Tables A-4 and A-5 below. [table]

[7] = Competitive suspension tests of free base crystalline forms A/B; assay type: physicochemical
Procedure: In order to confirm the thermodynamic transformation relationship between the anhydrous free base crystalline forms A and B under different temperature conditions, competitive suspension tests in n-heptane and toluene at room temperature and 50° C. were set up.

[8] = citric acid/histamine-stimulated cough model
[9] = citric acid/ATP-stimulated cough model
[10] = 25° C./60% RH/uncovered, 1 month
[11] = 25° C./60% RH/uncovered, 1 week
[12] = 40° C./75% RH/uncovered, 1 month
[13] = 40° C./75% RH/uncovered, 1 week

- AUC(0-t) [1]: 15000 ng·h/mL
- Cmax [1]: 3380 ng/mL
- Tmax [1]: 0.5 h
- half-life [1]: 2.89 h
- Water/aqueous quinine solution intake ratio (taste of SD rats): 29.4
Structure (SMILES): Cc1cnc(-c2cc(O[C@@H](C)[C@@H](C)O)cc(C(=O)N[C@H](C)c3cnc(C(F)(F)F)nc3)c2F)s1 [Compound of formula I, 2-fluoro-5-(((2S,3R)-3-hydroxybutan-2-yl)oxy)-3-(5-methylthiazol-2-yl)-N—((R)-1-(2-(trifluoromethyl)pyrimidin-5-yl)ethyl)benzamide]
- pharmacokinetic properties compared to the control compounds 1 and 2 ([1]; mouse model): certain improvements in their pharmacokinetic properties
- cough latency [2, 8]: prolonged the cough latency
- number of coughs compared to control compound 1 [2, 8]: significantly reduced the number of coughs
- Cough inhibition rate vs. vehicle (%) [2]: 66.5%
- Mean number of coughs within 15 min [2]: 8.9
- Cough inhibition rate vs. vehicle (%) [3]: 68.2%
- Mean number of coughs within 15 min [3]: 6.3
- cough latency [3, 9]: prolonged the cough latency
- number of coughs compared to control compound 1 [3, 9]: significantly reduced the number of coughs

- AUC(0-t) [1]: 5200 ng·h/mL
- Cmax [1]: 1250 ng/mL
- Tmax [1]: 0.5 h
- half-life [1]: 2.41 h
Structure (SMILES): Cc1cnc(-c2cc(O[C@@H]3CCOC3)cc(C(=O)N[C@H](C)c3cnc(C(F)(F)F)nc3)c2)s1 [Control compound 1, reference compound]
- Cough inhibition rate vs. vehicle (%) [2]: 57.1%
- Mean number of coughs within 15 min [2]: 11.4
- Cough inhibition rate vs. vehicle (%) [3]: 59.1%
- Mean number of coughs within 15 min [3]: 8.1

- solubility at 4 h ([4]; FaSSIF, 37 °C, pH 6.5, fassif, thermodynamic from solid, FaSSIF, 4 h, read-out: S: solubility): 8 µg/mL (≈ 16 µM)
- Crystalline form change ([4]; FaSSIF, 1 h): No
- S: solubility ([4]; FaSSIF, 1 h): 10 µg/mL
- pH of filtrate ([4]; FaSSIF, 1 h): 6.5
- Crystalline form change ([4]; FaSSIF, 4 h): No
- pH of filtrate ([4]; FaSSIF, 4 h): 6.5
- Crystalline form change ([4]; FaSSIF, 24 h): No
- S: solubility ([4]; FaSSIF, 24 h): 9 µg/mL
- pH of filtrate ([4]; FaSSIF, 24 h): 6.5
- solubility at 24 h ([4]; FeSSIF, 37 °C, pH 5, fessif, thermodynamic from solid, FeSSIF, 24 h, read-out: S: solubility): 25 µg/mL (≈ 50.2 µM)
- Crystalline form change ([4]; FeSSIF, 1 h): No
- S: solubility ([4]; FeSSIF, 1 h): 23 µg/mL
- pH of filtrate ([4]; FeSSIF, 1 h): 5.0
- Crystalline form change ([4]; FeSSIF, 4 h): No
- S: solubility ([4]; FeSSIF, 4 h): 23 µg/mL
- pH of filtrate ([4]; FeSSIF, 4 h): 5.0
- Crystalline form change ([4]; FeSSIF, 24 h): No
- pH of filtrate ([4]; FeSSIF, 24 h): 5.0
- Crystalline form change ([4]; H2O, 1 h): No
- S: solubility ([4]; H2O, 1 h): 3 µg/mL
- pH of filtrate ([4]; H2O, 1 h): 8.8
- Crystalline form change ([4]; H2O, 4 h): No
- S: solubility ([4]; H2O, 4 h): 3 µg/mL
- pH of filtrate ([4]; H2O, 4 h): 8.9
- Crystalline form change ([4]; H2O, 24 h): No
- S: solubility ([4]; H2O, 24 h): 3 µg/mL
- pH of filtrate ([4]; H2O, 24 h): 9.0
- Crystalline form change ([4]; SGF, 1 h): No
- S: solubility ([4]; SGF, 1 h): 13 µg/mL
- pH of filtrate ([4]; SGF, 1 h): 1.8
- Crystalline form change ([4]; SGF, 4 h): No
- S: solubility ([4]; SGF, 4 h): 13 µg/mL
- pH of filtrate ([4]; SGF, 4 h): 1.8
- Crystalline form change ([4]; SGF, 24 h): No
- S: solubility ([4]; SGF, 24 h): 12 µg/mL
- pH of filtrate ([4]; SGF, 24 h): 1.8
- crystalline form after DVS test ([5]; 0% RH to 95% RH to 0% RH, 25° C.): remained unchanged
- vapor sorption ([5]; 25° C./80% RH): about 0.91%
- hygroscopicity ([5]; DVS, 25° C./80% RH): slight hygroscopicity
- HPLC Purity (area %) [6, 10]: 99.33 area %
- HPLC purity Relative to starting (%) [6, 10]: 99.96%
- HPLC Purity (area %) [6, 11]: 99.38 area %
- HPLC purity Relative to starting (%) [6, 11]: 100.01%
- HPLC Purity (area %) [6, 12]: 99.43 area %
- HPLC purity Relative to starting (%) [6, 12]: 100.06%
- HPLC Purity (area %) [6, 13]: 99.51 area %
- HPLC purity Relative to starting (%) [6, 13]: 100.14%
- change of HPLC purity after placement under the corresponding conditions ([6]; 60° C. sealed 1 day, 25° C./60% RH and 40° C./75% RH uncovered 1 week/1 month): no significant change
- HPLC Purity (area %) ([6]; 60° C./sealed, 1 day): 99.44 area %
- HPLC purity Relative to starting (%) ([6]; 60° C./sealed, 1 day): 100.07%
- HPLC Purity (area %) ([6]; Starting): 99.37 area %
Structure (SMILES): Cc1cnc(-c2cc(O[C@@H](C)[C@@H](C)O)cc(C(=O)N[C@H](C)c3cnc(C(F)(F)F)nc3)c2F)s1 [Free base crystalline form A, 2-fluoro-5-(((2S,3R)-3-hydroxybutan-2-yl)oxy)-3-(5-methylthiazol-2-yl)-N—((R)-1-(2-(trifluoromethyl)pyrimidin-5-yl)ethyl)benzamide]
- crystalline form changes in the dynamic solubility tests ([4]; H2O, SGF, FaSSIF, FeSSIF): did not undergo any crystalline form changes
- thermodynamic stability of the crystalline form ([7]; room temperature and 50° C.): thermodynamically stable crystalline form

- Resulting crystalline form after competitive suspension ([7]; Toluene, 50° C., 2 d): Free base crystalline form A
- Resulting crystalline form after competitive suspension ([7]; Toluene, RT, 5 d): Free base crystalline form A
- Resulting crystalline form after competitive suspension ([7]; n-Heptane, 50° C., 2 d): Free base crystalline form A
- Resulting crystalline form after competitive suspension ([7]; n-Heptane, RT, 42 d): Free base crystalline form A
Structure (SMILES): Cc1cnc(-c2cc(O[C@@H](C)[C@@H](C)O)cc(C(=O)N[C@H](C)c3cnc(C(F)(F)F)nc3)c2F)s1 [Free base crystalline forms A + B]
